Measurements published in patent US20260146035A1, “FUSED BICYCLIC COMPOUNDS AND THEIR USE AS MER AND AXL INHIBITORS” (DONG-A ST CO., LTD., priority 2022, published 2026).

How the values were obtained:
[1] = target: T1, human TYRO3 (455-end) (Homo sapiens, UniProt Q06418); test: HTRF kinase activity biochemical assay, TYRO3; conditions: 10 μM ATP, 30 minutes pre-incubation; read-out: HTRF TYRO IC50
T1 construct: TYRO3 (455-end); purchased SignalChem, Canada
T1 sequence (Q06418 455-890 limits assumed): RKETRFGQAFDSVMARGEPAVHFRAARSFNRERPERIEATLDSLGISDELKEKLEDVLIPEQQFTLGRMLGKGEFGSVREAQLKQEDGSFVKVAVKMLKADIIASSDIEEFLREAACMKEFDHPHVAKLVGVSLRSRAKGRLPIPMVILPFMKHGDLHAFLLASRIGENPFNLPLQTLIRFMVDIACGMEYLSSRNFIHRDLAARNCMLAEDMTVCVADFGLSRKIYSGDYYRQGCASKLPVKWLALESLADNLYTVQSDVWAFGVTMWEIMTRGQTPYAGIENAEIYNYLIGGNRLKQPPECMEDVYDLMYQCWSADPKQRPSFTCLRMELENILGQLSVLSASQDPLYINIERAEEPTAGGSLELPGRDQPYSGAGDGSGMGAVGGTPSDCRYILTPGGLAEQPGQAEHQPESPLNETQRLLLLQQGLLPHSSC

[2] = target: T2, human MER (528-end) (Homo sapiens, UniProt Q12866); test: HTRF kinase activity biochemical assay, MER; conditions: 10 μM ATP, 30 minutes pre-incubation; read-out: HTRF MERTK IC50
T2 construct: human MER (528-end); purchased Camnabio, Japan
T2 sequence (Q12866 528-999 limits assumed): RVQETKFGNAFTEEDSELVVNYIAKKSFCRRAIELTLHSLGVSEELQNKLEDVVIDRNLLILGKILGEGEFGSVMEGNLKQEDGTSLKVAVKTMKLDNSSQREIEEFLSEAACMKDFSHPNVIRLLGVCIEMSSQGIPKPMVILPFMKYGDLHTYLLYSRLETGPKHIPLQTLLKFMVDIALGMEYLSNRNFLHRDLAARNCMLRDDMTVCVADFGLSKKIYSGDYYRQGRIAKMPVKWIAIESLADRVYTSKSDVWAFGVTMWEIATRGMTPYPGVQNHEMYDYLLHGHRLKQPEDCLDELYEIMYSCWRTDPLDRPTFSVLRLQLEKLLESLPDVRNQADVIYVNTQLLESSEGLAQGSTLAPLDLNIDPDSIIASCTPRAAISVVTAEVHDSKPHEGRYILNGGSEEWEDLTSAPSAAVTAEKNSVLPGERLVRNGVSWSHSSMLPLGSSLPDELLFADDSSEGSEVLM

[3] = target: T3, human AXL (473-end) (Homo sapiens, UniProt P30530); test: HTRF kinase activity biochemical assay, AXL; conditions: 10 μM ATP, 30 minutes pre-incubation
T3 construct: human AXL (473-end); purchased SignalChem, Canada
T3 sequence (P30530 473-894 limits assumed): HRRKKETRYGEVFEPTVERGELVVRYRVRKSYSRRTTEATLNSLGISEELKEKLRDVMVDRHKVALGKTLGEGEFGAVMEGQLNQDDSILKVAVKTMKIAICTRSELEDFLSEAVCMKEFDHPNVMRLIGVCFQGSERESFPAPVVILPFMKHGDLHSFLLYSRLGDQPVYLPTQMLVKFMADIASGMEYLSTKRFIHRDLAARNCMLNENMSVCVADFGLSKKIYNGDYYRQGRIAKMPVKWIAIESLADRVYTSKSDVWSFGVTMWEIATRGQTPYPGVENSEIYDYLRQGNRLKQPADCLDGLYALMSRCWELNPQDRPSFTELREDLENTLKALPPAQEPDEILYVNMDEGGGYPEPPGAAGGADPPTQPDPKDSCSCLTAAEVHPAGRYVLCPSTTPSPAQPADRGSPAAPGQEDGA

Compound `COc1ccnc(N)c1C(=O)N[C@H]1CCC[C@@H]1OCc1ccc(-c2ccc3c(c2)CC[C@@H]3N2CCN(C)CC2)cc1` [Example 139, 2-amino-4-methoxy-N-[(1S,2S)-2-({4-[(1S)-1-(4-methylpiperazin-1-yl)-2,3-dihydro-1H-inden-5-yl]phenyl}methoxy)cyclopentyl]pyridine-3-carboxamide] has an IC50 [1] of 100 to 1000 nM, an IC50 [2] of less than 10 nM and an IC50 [3] of less than 10 nM.
`CC1(C)CC(N2CCN(C(CO)CO)CC2)c2ccc(-c3ccc(CO[C@H]4CCC[C@@H]4NC(=O)c4cc(-c5cccnc5F)cnc4N)cc3)cc21` (stereo partly drawn) [Example 140, 6-amino-N-{(1S,2S)-2-[(4-{1-[4-(1,3-dihydroxypropan-2-yl)piperazin-1-yl]-3,3-dimethyl-2,3-dihydro-1H-inden-5-yl}phenyl)methoxy]cyclopentyl}-2′-fluoro[3,3′-bipyridine]-5-carboxamide] gave an IC50 [1] of 100 to 1000 nM, an IC50 [2] of less than 10 nM and an IC50 [3] of less than 10 nM.
`Cn1cc(-c2cnc(N)c(C(=O)N[C@H]3CCC[C@@H]3OCc3ccc(-c4ccc5c(c4)CCC[C@@H]5N4CCNCC4)cc3)c2)cn1` [Example 141, 2-amino-5-(1-methyl-1H-pyrazol-4-yl)-N-[(1S,2S)-2-({4-[(5S)-5-(piperazin-1-yl)-5,6,7,8-tetrahydronaphthalen-2-yl]phenyl}methoxy)cyclopentyl]pyridine-3-carboxamide] was tested, and the IC50 [1] was 10 to 100 nM, the IC50 [2] was less than 10 nM and the IC50 [3] was less than 10 nM.
With `CN1CCN([C@H]2CCc3cc(-c4ccc(CO[C@H]5CCC[C@@H]5NC(=O)c5cc(C(F)(F)F)cnc5N)cc4)ccc32)CC1` [Example 143, 2-amino-N-[(1S,2S)-2-({4-[(1S)-1-(4-methylpiperazin-1-yl)-2,3-dihydro-1H-inden-5-yl]phenyl}methoxy)cyclopentyl]-5-(trifluoromethyl)pyridine-3-carboxamide] the IC50 [1] was 100 to 1000 nM, the IC50 [2] was less than 10 nM and the IC50 [3] was less than 10 nM.
`CN1CCN([C@@H]2CC(C)(C)c3cc(-c4ccc(CO[C@H]5CCC[C@@H]5NC(=O)c5cc(-c6cnn(C)c6)cnc5N)cc4)ccc32)CC1` [Example 145, 2-amino-N-[(1S,2S)-2-({4-[(1R)-3,3-dimethyl-1-(4-methylpiperazin-1-yl)-2,3-dihydro-1H-inden-5-yl]phenyl}methoxy)cyclopentyl]-5-(1-methyl-1H-pyrazol-4-yl)pyridine-3-carboxamide] was tested, and the IC50 [1] was greater than 1000 nM, the IC50 [2] was 10 to 100 nM and the IC50 [3] was 10 to 100 nM.
In the case of `Cn1cc(-c2cnc(N)c(C(=O)N[C@H]3CCC[C@@H]3OCc3ccc(-c4ccc5c(c4)C(C)(C)CCC5N4CCNCC4)cc3)c2)cn1` (stereo partly drawn) [Example 146, 2-amino-N-[(1S,2S)-2-({4-[8,8-dimethyl-5-(piperazin-1-yl)-5,6,7,8-tetrahydronaphthalen-2-yl]phenyl}methoxy)cyclopentyl]-5-(1-methyl-1H-pyrazol-4-yl)pyridine-3-carboxamide], the IC50 [1] is reported as 10 to 100 nM, the IC50 [2] is reported as less than 10 nM and the IC50 [3] is reported as less than 10 nM.
`CN1CCN(C2CCC(C)(C)c3cc(-c4ccc(CO[C@H]5CCC[C@@H]5NC(=O)c5cc(-c6cnn(C)c6)cnc5N)cc4)ccc32)CC1` (stereo partly drawn) [Example 147, 2-amino-N-[(1S,2S)-2-({4-[8,8-dimethyl-5-(4-methylpiperazin-1-yl)-5,6,7,8-tetrahydronaphthalen-2-yl]phenyl}methoxy)cyclopentyl]-5-(1-methyl-1H-pyrazol-4-yl)pyridine-3-carboxamide] showed an IC50 [1] of 10 to 100 nM, an IC50 [2] of less than 10 nM and an IC50 [3] of less than 10 nM.
`Cn1cc(-c2cnc(N)c(C(=O)N[C@H]3CCC[C@@H]3OCc3ccc(-c4ccc5c(c4)C(C)(C)CCC5N4CCN(CCO)CC4)cc3)c2)cn1` (stereo partly drawn) [Example 148, 2-amino-N-{(1S,2S)-2-[(4-{5-[4-(2-hydroxyethyl)piperazin-1-yl]-8,8-dimethyl-5,6,7,8-tetrahydronaphthalen-2-yl}phenyl)methoxy]cyclopentyl}-5-(1-methyl-1H-pyrazol-4-yl)pyridine-3-carboxamide] gave an IC50 [1] of 10 to 100 nM, an IC50 [2] of less than 10 nM and an IC50 [3] of less than 10 nM.
Work on `Nc1ncc(-c2cccnc2F)cc1C(=O)N[C@H]1CCC[C@@H]1OCc1ccc(-c2ccc3c(c2)CCCC3N2CCN(CCO)CC2)cc1` (stereo partly drawn) [Example 149, 6-amino-2′-fluoro-N-{(1S,2S)-2-[(4-{5-[4-(2-hydroxyethyl)piperazin-1-yl]-5,6,7,8-tetrahydronaphthalen-2-yl}phenyl)methoxy]cyclopentyl}[3,3′-bipyridine]-5-carboxamide] yielded an IC50 [1] of 10 to 100 nM, an IC50 [2] of less than 10 nM and an IC50 [3] of less than 10 nM.
Work on `CN1CCN([C@H]2CC(C)(C)c3cc(-c4ccc(CO[C@H]5CCC[C@@H]5NC(=O)c5cc(-c6cccnc6F)cnc5N)cc4)ccc32)CC1` [Example 150, 6-amino-N-[(1S,2S)-2-({4-[(1S)-3,3-dimethyl-1-(4-methylpiperazin-1-yl)-2,3-dihydro-1H-inden-5-yl]phenyl}methoxy)cyclopentyl]-2′-fluoro[3,3′-bipyridine]-5-carboxamide] yielded an IC50 [1] of 10 to 100 nM, an IC50 [2] of less than 10 nM and an IC50 [3] of less than 10 nM.
`COc1ccc(-c2cnc(N)c(C(=O)N[C@H]3CCC[C@@H]3OCc3ccc(-c4ccc5c(c4)CC[C@@H]5N4CCN(C)CC4)cc3)c2)cn1` [Example 152, 6-amino-6′-methoxy-N-[(1S,2S)-2-({4-[(1S)-1-(4-methylpiperazin-1-yl)-2,3-dihydro-1H-inden-5-yl]phenyl}methoxy)cyclopentyl][3,3′-bipyridine]-5-carboxamide] showed an IC50 [1] of 100 to 1000 nM, an IC50 [2] of less than 10 nM and an IC50 [3] of less than 10 nM.
`N#Cc1ccc(-c2cnc(N)c(C(=O)N[C@H]3CCC[C@@H]3OCc3ccc(-c4ccc5c(c4)CC[C@@H]5N4CCN(CCO)CC4)cc3)c2)cn1` [Example 153, 6-amino-6′-cyano-N-{(1S,2S)-2-[(4-{(1S)-1-[4-(2-hydroxyethyl)piperazin-1-yl]-2,3-dihydro-1H-inden-5-yl}phenyl)methoxy]cyclopentyl}[3,3′-bipyridine]-5-carboxamide] gave an IC50 [1] of 100 to 1000 nM, an IC50 [2] of less than 10 nM and an IC50 [3] of less than 10 nM.
With `CN1CCN([C@H]2CCc3cc(-c4ccc(CO[C@H]5CCC[C@@H]5NC(=O)c5cc(-c6ccc(C#N)nc6)cnc5N)cc4)ccc32)CC1` [Example 154, 6-amino-6′-cyano-N-[(1S,2S)-2-({4-[(1S)-1-(4-methylpiperazin-1-yl)-2,3-dihydro-1H-inden-5-yl]phenyl}methoxy)cyclopentyl][3,3′-bipyridine]-5-carboxamide] the IC50 [1] was 100 to 1000 nM, the IC50 [2] was less than 10 nM and the IC50 [3] was less than 10 nM.
Work on `COc1c(-c2cnn(C)c2)cnc(N)c1C(=O)N[C@H]1CCC[C@@H]1OCc1ccc(-c2ccc3c(c2)CC[C@@H]3N2CCN(CCO)CC2)cc1` [Example 155, 2-amino-N-{(1S,2S)-2-[(4-{(1S)-1-[4-(2-hydroxyethyl)piperazin-1-yl]-2,3-dihydro-1H-inden-5-yl}phenyl)methoxy]cyclopentyl}-4-methoxy-5-(1-methyl-1H-pyrazol-4-yl)pyridine-3-carboxamide] yielded an IC50 [1] of 100 to 1000 nM, an IC50 [2] of less than 10 nM and an IC50 [3] of less than 10 nM.
`Cn1cc(-c2cnc(N)c(C(=O)N[C@H]3CCC[C@@H]3OCc3ccc(-c4ccc5c(c4)ncn5C4CCN(CCO)CC4)cc3)c2)cn1` [Example 156, 2-amino-N-{(1S,2S)-2-[(4-{1-[1-(2-hydroxyethyl)piperidin-4-yl]-1H-benzimidazol-5-yl}phenyl)methoxy]cyclopentyl}-5-(1-methyl-1H-pyrazol-4-yl)pyridine-3-carboxamide] gave an IC50 [1] greater than 1000 nM, an IC50 [2] of 100 to 1000 nM and an IC50 [3] greater than 1000 nM.
